In patent publication US8900880B2, “Viral citrullinated peptides and uses thereof” (Toscana Biomarkers S.R.L., priority 2009, dated 2014):
Entries after “also recorded” stand apart in the source; their conditions may differ. Where two headings read alike, the source gives them in different places. Where no end group is shown, it is not given here. [ ]: non-standard residue; d: D form. Cit = NC(=O)NCCC[C@H](N)C(=O)O

Tests used:
[1] = system: IgG antibodies in RA and NHS sera; experiment: ELISA with differently citrullinated EBNA-2(338-358) peptides (Example 6); assay type: binding, human; settings: for NHS positive sera: 23 normal healthy subjects; for NHS positive sera / RA positive sera: positive = greater than 97.5th percentile of normal control group; for RA positive sera: 24 RA patients; for reactivity with RA sera (in words): 24 RA sera, relevant = more than 25% positive
From the text: The role of the number and of the position of citrullines inside EBNA-2(338-358) sequence in the detection of specific antibodies in RA sera was investigated by means of differently citrullinated peptides (Table 1).
It is believed that these two positions relate to two different antigenic regions.

[2] = system: anti-VCP2 antibodies (IgG) from RA sera; experiment: ELISA of affinity-purified anti-VCP2 antibodies from RA sera (Example 5); assay type: binding, human; settings: four preparations from 4 different RA sera
Description: FIG. 4. Isolation of anti-VCP2 antibodies from RA sera was performed according to the method described in example 4.
A citrullinated peptide or MAP according to the present invention was conjugated to CNBr-activated sepharose according to standard procedures known by one skilled in the art. Total immunoglobulins from sera containing anti-CP antibodies were precipitated with 50% saturated ammonium sulfate; the precipitates were dissolved in phosphate buffer (pH 7.4) and dialyzed overnight against PBS. Enriched immunoglobulin preparations were applied to the column, and the flowthrough was collected for subsequent analysis. The column was extensively washed with 20 mM Na2HPO4, 150 mM NaCl (pH 7.2), and the antibodies bound to the column were eluted by 0.1 M glycine buffer (pH 2.8) (0.5 ml/fraction), immediately neutralized with 50 μl Tris 1M (pH 8.0), and dialyzed overnight against PBS. The anti-CP antibody content in the eluates and flowthrough was tested by ELISA.

[3] = system: anti-VCP1 antibodies in RA and control sera; settings: cited from earlier work
[4] = system: autoantibodies in RA sera; experiment: 79 RA patients tested for anti-CCP2, anti-CCP3, anti-VCP1 and anti-VCP2 (FIG. 1); assay type: binding, human
From the text: FIG. 1. […] The presence of different populations of autoantibodies is depicted in the block diagram. Number of RA sera positive (+) or negative (−) to anti-CCP2, anti-CCP3, anti-VCP1 [peptide of formula (VI)], and anti-VCP2 [peptide of formula (V)] are shown above the diagram.
Noteworthy, 7/79 (9%) anti-CCP2 and anti-CCP3 negative sera are positive to the peptide of formula (VI); 2/79 (3%) anti-CCP2 and anti-CCP3 negative sera are positive to peptide of formula (V); 1/79 (1%) anti-CCP2 and anti-CCP3 negative serum is positive to both peptides of formula (V) and formula (VI). Thus, formula (V) and (VI) allow to detect antibodies in a subgroup of anti-CCP negative RA patients (FIG. 1).

[5] = system: anti-CP IgG antibodies in RA patients' serum; settings: 100 RA patients; IgG; cut-off 97.5th percentile of normal controls
Description: The ability to recognize specific antibodies in RA patients by MAP of formula (V), in comparison with the MAP of formula (VI) was evaluated by ELISA.
MAP of formula (V) and MAP of formula (VI) were diluted respectively to a concentration of 20 μg/ml and 5 μg/ml in PBS, loaded into the wells of a polystyrene micro-titration plate (50 μl/well), and left overnight at +4° C. Upon completion of the coating period, the wells were treated for 1 hour at RT with 3% BSA in PBS. The patients' serum samples (diluted 1:200 in a buffer constituted by 1% BSA, 0.05% Tween X-100 in PBS) were then loaded onto the plate (50 μl/well) and left to incubate for 3 hours at RT. After the incubation period, one washing was performed with 1% PBS Tween X-100 and two washings were performed with PBS (150 μl/well). An anti human-IgG antibody conjugated to the enzyme alkaline phosphatase (50 μl/well), diluted 1:3000 in 1% PBS BSA, 0.05% Tween X-100, was incubated for 3 hours at RT with stirring. Upon completion of the incubation, after three washings as described above, p-nitrophenyl phosphate was added to the wells and the absorbance at a wavelength of 405 nm was determined. The results of the test were expressed as the percentage of positivity, calculated by dividing the absorbance of each serum sample by the absorbance of a positive serum sample the value of which was set arbitrarily at 100.
Serum samples of 100 patients suffering from RA were tested by this method.

anti-SmD1 IgG antibodies = settings: cited from earlier work
[6] = WO2004087747, MAP as coating antigen

Row | Substance | NHS positive sera [1] | RA positive sera [1] | also measured
1 | GQSRGQSCitGCitGCitGRGRGRGKG (GQSRGQS[Cit]G[Cit]G[Cit]GRGRGRGKG) [[Cit345, Cit^347, Cit^349]EBNA2(338-358)] | 1/23 | 9/24 | 
2 | GQSRGQSCitGRGRGRGRGCitGKG (GQSRGQS[Cit]GRGRGRGRG[Cit]GKG) [[Cit^345, Cit^355]EBNA2(338-358)] | 0/23 | 11/24 | 
3 | GQSRGQSRGRGRGRGRGRGKG [EBNA2(338-358), reference compound] | 0/23 | 3/24 | reactivity of purified anti-VCP2 IgG with the antigen [2]: no binding; reactivity with RA sera (in words) [1]: does not react with RA sera; also recorded: does not recognize IgG antibodies in a relevant number of RA sera
4 | GQSRGQSRGRGCitGRGRGRGKG (GQSRGQSRGRG[Cit]GRGRGRGKG) [[Cit^349]EBNA2(338-358)] | 1/23 | 9/24 | 
5 | GQSCitGQSCitGRGRGRGRGRGKG (GQS[Cit]GQS[Cit]GRGRGRGRGRGKG) [[Cit^341, Cit^345]EBNA2(338-358)] | 0/23 | 12/24 | 
6 | (G G D N H G Cit G Cit G Cit G Cit G Cit G G G Cit P G A P G)4 K2 K beta-Alanine [VCP1] |  |  | anti-VCP1 antibodies found in RA sera ([3]; Anzilotti et al. 2006, 300 RA patients): 45%; anti-VCP1 antibodies found in controls ([3]; Anzilotti et al. 2006, 327 controls): less than 5%; antibodies detected in RA sera ([3]; Pratesi et al. 2006): 50%; antibodies detected in normal and disease control sera ([3]; Pratesi et al. 2006): less than 5%; antibodies detected in RA sera [3, 6]: 45%; specificity [3, 6]: 95%; RA sera containing antibodies reacting with either one of the two MAP ([4]; comparison of MAP of formula (V) and MAP of formula (VI)): 15%; anti-CCP2 and anti-CCP3 negative sera positive to the peptide ([4]; of 79 RA patients): 9%; anti-CCP2 and anti-CCP3 negative serum positive to both peptides ([4]; of 79 RA patients (1/79)): 1%; positive RA sera ([4]; population of 79 RA patients): 62%; anti-CP MAP antibodies found in the RA cohort [5]: 47%
7 | GQSRGQSCitGRGCitGRGRGRGKG (GQSRGQS[Cit]GRG[Cit]GRGRGRGKG) [[Cit^345, Cit^349]EBNA2(338-358)] | 0/23 | 15/24 | reactivity with RA sera (in words) [1]: most active and selective di-citrullinated peptide
8 | GQSCitGQSCitGRGCitGRGRGRGKG (GQS[Cit]GQS[Cit]GRG[Cit]GRGRGRGKG) | 1/23 | 12/24 | reactivity with RA sera (in words) [1]: most active peptide in this series
9 | GQSRGQSCitGRGCitGRGCitGRGKG (GQSRGQS[Cit]GRG[Cit]GRG[Cit]GRGKG) | 1/23 | 10/24 | 
10 | GQSRGQSCitGCitGRGRGRGRGKG (GQSRGQS[Cit]G[Cit]GRGRGRGRGKG) [[Cit^345, Cit^347]EBNA2(338-358)] | 1/23 | 10/24 | 
11 | GQSCitGQSRGRGRGRGRGRGKG (GQS[Cit]GQSRGRGRGRGRGRGKG) [[Cit^341]EBNA2(338-358)] | 1/23 | 4/24 | 
12 | GQSRGQSRGRGRGCitGCitGRGKG (GQSRGQSRGRGRG[Cit]G[Cit]GRGKG; not fully specified) [[Cit^349, Cit^353]EBNA2(338-358)] | 0/23 | 12/24 | 
13 | EBNA-2(354-373): non deiminated sequence EBNA2(354-373) of Incaprera et al. |  |  | IgG detection in IM and SLE sera (anti-SmD1 IgG antibodies; Incaprera et al. 1998): detection of IgGs; antibody recognition (anti-SmD1 IgG antibodies; systemic lupus erythematosus autoimmunity): recognizes anti-SmD1 IgG antibodies
14 | GQSRGQSCitGRGRGRGCitGRGKG (GQSRGQS[Cit]GRGRGRG[Cit]GRGKG) [[Cit^345, Cit^353]EBNA2(338-358)] | 2/23 | 6/24 | 
15 | GQSRGQSRGRGRGRGRGCitGKG (GQSRGQSRGRGRGRGRG[Cit]GKG) [[Cit^355]EBNA2(338-358)] | 2/23 | 3/24 | 
16 | GQSRGQSRGRGRGCitGRGRGKG (GQSRGQSRGRGRG[Cit]GRGRGKG) [[Cit^351]EBNA2(338-358)] | 1/23 | 6/24 | 
17 | GQSRGQSRGRGRGCitGRGCitGKG (GQSRGQSRGRGRG[Cit]GRG[Cit]GKG; not fully specified) [[Cit^349, Cit^355]EBNA2(338-358)] | 0/23 | 9/24 | 
18 | GQSCitGQSRGRGRGCitGRGRGKG (GQS[Cit]GQSRGRGRG[Cit]GRGRGKG; not fully specified) [[Cit^341, Cit^349]EBNA2(338-358)] | 0/23 | 6/24 | 
19 | GQSRGQSRGRGCitGCitGRGRGKG (GQSRGQSRGRG[Cit]G[Cit]GRGRGKG) [[Cit^349, Cit^351]EBNA2(338-358)] | 2/23 | 15/24 | reactivity with RA sera (in words) [1]: very active; specificity and selectivity (in words) ([1]; RA versus NHS sera): less specific and selective
20 | GQSRGQSCitGRGRGRGRGRGKG (GQSRGQS[Cit]GRGRGRGRGRGKG) [[Cit^345]EBNA2(338-358)] | 1/23 | 9/24 | 
21 | GQSRGQSRGCitGRGRGRGRGKG (GQSRGQSRG[Cit]GRGRGRGRGKG) [[Cit^347]EBNA2(338-358)] | 1/23 | 6/24 | 
22 | GQSCitGQSRGRGRGRGRGCitGKG (GQS[Cit]GQSRGRGRGRGRG[Cit]GKG) [[Cit^341, Cit^355]EBNA2(338-358)] | 1/23 | 8/24 | 
23 | GQSRGQSCitGRGCitGRGRGCitGKG (GQSRGQS[Cit]GRG[Cit]GRGRG[Cit]GKG) | 0/23 | 8/24 | 
24 | GQSRGQSRGRGRGRGCitGRGKG (GQSRGQSRGRGRGRG[Cit]GRGKG) [[Cit^353]EBNA2(338-358)] | 0/23 | 6/24 | 
25 | GQSRGQSCitGRGCitGCitGRGRGKG (GQSRGQS[Cit]GRG[Cit]G[Cit]GRGRGKG) | 1/23 | 8/24 | 
26 | GQSRGQSCitGRGRGCitGRGRGKG (GQSRGQS[Cit]GRGRG[Cit]GRGRGKG) [[Cit^345, Cit^351]EBNA2(338-358)] | 1/23 | 12/24 | 
27 | GQSRGQSRGCitGRGCitGRGRGKG (GQSRGQSRG[Cit]GRG[Cit]GRGRGKG; not fully specified) [[Cit^347, Cit^349]EBNA2(338-358)] | 1/23 | 5/24 | 
